What was measured:
5-lipoxygenase [1] = biological target: T1, 5-lipoxygenase (Rattus norvegicus, UniProt P12527); assay: Inhibition of 5-lipoxygenase in RBL-1-cells; assay type: cell-based; details: 20 μM [14C]-arachidonic acid, 20 μM A 23 187
T1 construct: endogenous in cells; host or cells: RBL-1 cells (rat basophilic leukemia), intact
T1 sequence (P12527 1-673): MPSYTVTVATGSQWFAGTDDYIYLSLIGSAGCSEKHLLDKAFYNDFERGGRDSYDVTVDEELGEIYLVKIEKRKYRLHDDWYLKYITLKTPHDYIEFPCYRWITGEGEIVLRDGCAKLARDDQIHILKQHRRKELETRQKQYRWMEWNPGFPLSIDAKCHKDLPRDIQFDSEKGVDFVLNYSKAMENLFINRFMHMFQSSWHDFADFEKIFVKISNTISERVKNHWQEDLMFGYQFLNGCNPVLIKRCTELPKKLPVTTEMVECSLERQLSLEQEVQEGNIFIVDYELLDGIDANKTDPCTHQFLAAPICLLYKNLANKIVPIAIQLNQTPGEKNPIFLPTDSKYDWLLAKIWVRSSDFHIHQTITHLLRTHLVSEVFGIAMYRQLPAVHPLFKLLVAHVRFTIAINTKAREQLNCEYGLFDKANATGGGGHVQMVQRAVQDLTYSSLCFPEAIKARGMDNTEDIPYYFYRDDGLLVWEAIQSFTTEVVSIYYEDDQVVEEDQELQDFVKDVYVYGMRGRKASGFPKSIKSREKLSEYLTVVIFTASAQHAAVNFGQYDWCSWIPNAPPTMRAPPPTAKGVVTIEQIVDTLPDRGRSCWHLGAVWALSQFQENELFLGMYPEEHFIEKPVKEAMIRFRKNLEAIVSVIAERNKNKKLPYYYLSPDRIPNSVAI
Experimental: To determine the inhibition of 5-lipoxygenase rat basophilic leukemia cells (RBL-1-cells) were cultured in vitro, harvested by centrifugation, washed with 50 mM potassium phosphate buffer of pH 7.4, and then suspended in this buffer at 1×10^7 cells/mi. To 1 ml each of this suspension there was added indomethacin (10 μM) and calcium chloride (2 mM), and then the mixture was incubated in the absence or presence of a compound according to the invention in a concentration range of from 0.1 μM to 100 μM for 3 minutes and thereafter with 20 μM of [^14 C]-arachidonic acid and 20 μM of the calcium ionophore A 23 187 for 10 minutes. The reaction was stopped by adding 20 μl of glacial acetic acid, and then the mixture was extracted with ethyl acetate to isolate the metabolites of arachidonic acid formed by the enzymatic action of 5-lipoxygenase. These were separated by thin layer chromatography using a solvent mixture known to be suitable for lipoxygenase products [c.f. Jakschik et al., Biochem. Biophys. Res. Commun. 102, 624 (1981)].
The distribution of the radioactivity among the various metabolites of arachidonic acid was measured using a TLC Linear Analyzer. By correlating the percentages of the amount of the products formed under the action of 5lipoxygenase (5-HETE, isomers of LTB4) in the absence as well as in the presence of different concentrations of compounds according to the invention, the IC50 -values, i.e. the concentrations which cause 50% inhibition of 5-lipoxygenase were determined graphically from semilogarithmic diagrams.

5-lipoxygenase [2] = biological target: T1, 5-lipoxygenase; assay: Inhibition of cell-free 5-lipoxygenase from RBL-1-cells; assay type: biochemical; details: 10,000×g supernatant of RBL cells; polarographic; arachidonic acid 75 μM
Experimental: Cell-free 5-lipoxygenase was polarographically measured from 10,000×gsupernatant of homogenized rat basophilic leucemia cells [M. Haurand and L. Flohe in Biol. Chem. Hoppe-Seyler 369, 133-142 (1988)]. After preincubation of the 10,000×g supernatant with arachidonic acid (75 μM), ATP (adenosine triphosphate; 4 μM), reduced glutathione (4 mM), and either a compound according to the invention (0.1 to 100 μM) or a solvent (ethanol and/or dimethyl sulfoxide) at 35° C. for 5 minutes, the lipoxygenase reaction was initiated by addition of calcium chloride (3 mM) and recorded simultaneously.
The activity of 5-lipoxygenase was determined from the difference of the pO2 -decrease before and after addition of calcium chloride. The evaluation included the initial rate of the reaction after the lag-phase as well as the duration of the lag-phase. In a concentration range of from 5 to 10 μM the test substances induced lag-phases of 15 seconds.

5-lipoxygenase [3] = assay: 5-lipoxygenase inhibition in rat blood after oral administration (ex vivo iLTB4-formation); details: male Wistar rats, 21.5 mg/kg oral, one hour after administration, A 23 187 15 μg/ml
Experimental: The bioavailability of the compounds of formula I as 5-lipoxygenase inhibitors was characterized by means of an ex vivo biochemical assessment method described by Tateson et al. in Brit. J. Pharmacol. 94, 528 (1988). A compound of formula I was orally administered to male rats (Wistar strain) in a dose of 21.5 mg/kg. One hour after administration the rats after lethal CO2 -narcosis were bled by heart puncture with added heparin as an anticoagulant. Aliquots of the whole blood were incubated at 37° C. for 30 minutes in a water bath with calcium ionophore A 23 187 at an end concentration of 15 μg/ml. At the end of the incubation the samples were centrifuged, and the concentration of immunoreactive LTB4 (iLTB4) in aliquots of […] percent inhibition of ex vivo iLTB4 -formation in whole blood of rats treated with a compound according to the invention, rats orally treated with an appropriate vehicle solution were included in all experiments, and aliquots of their blood were run in parallel and were processed in the same way as described. The average iLTB4 -content of the plasma of the vehicle treated rats served as the 100% value. The activity in percent of the ex vivo iLTB4 -formation after oral administration of a compound according to the invention was calculated by dividing the average value of the iLTB4 -content in ng iLTB4 /ml of the group treated with a compound according to the invention by the average value of the iLTB4 -contents in ng iLTB4 /ml of the vehicle treated group and subsequent multiplication by the factor 100. The respective inhibition in percent was calculated by subtracting the activity in percent from 100.

guinea pigs = assay: Allergen-induced bronchoconstriction in guinea pigs (Konzett-Roessler); assay type: in vivo, guinea pig; details: Cavia porcellus, po, 1 h, 60 minutes before ovalbumin, read-out: ED40-Value, inhibition of the bronchoconstriction elicited by ovalbumin
Experimental: The antiasthmatic effect of compounds according to the invention was tested in anesthetized and ventilated guinea pigs. To induce an asthmatic reaction, the animals were passively sensitized by a single intraperitoneal injection of anti-ovalbumin serum. After 48 hours an asthmatic reaction was elicited by intravenous challenge with 0.2 mg/kg of ovalbumin. The immediately resulting bronchoconstriction was measured as an increase in intratracheal pressure. Effects caused by histamine, serotonin and sympathic counterreaction were eliminated by intravenous pretreatment with 2.15 mg/kg of mepyramine, 46.4 μg/kg of propranolol, 4.64 mg/kg of atropine, and 1 mg/kg of methysergide, all administered 5 minutes before challenge. Compounds according to the invention were orally administered 60 minutes before the administration of ovalbumin. The following ED40-values for the inhibition of the bronchoconstriction elicited by ovalbumin, i.e. the effective doses causing a 40% average inhibition of the bronchoconstriction, were determined: […]

Row | Compound | IC50 (5-lipoxygenase [1]) | IC50 (5-lipoxygenase [2]) | Inhibition of ex vivo iLTB4-formation in whole blood (5-lipoxygenase [3]; 21.5 mg/kg) | ED40 (guinea pigs) | Inhibition of ex vivo iLTB4-formation in whole blood (5-lipoxygenase [3])
1 | NC(=O)N(O)Cc1ccc(Oc2ccc(-n3ccnc3)cc2)cc1 [Example 1, N-hydroxy-N-[4-[4-(1H-imidazol-1-yl)phenoxy]phenylmethyl]urea] | 2 µM | 7 µM | 89% | 9.3 mg/kg | –
2 | CC(=O)N(O)Cc1ccc(Oc2ccc(-n3ccnc3)cc2)cc1 [Example 3, N-hydroxy-N-[4-[4-(1H-imidazol-1-yl)phenoxy]phenylmethyl]acetamide] | 5 µM | 3 µM | – | 15.5 mg/kg | 91%
